Measured values: ChEMBL document CHEMBL1649348, “Antifungal cyclic peptides from Psammosilene tunicoides” (2010)
Converted amounts (≈) assume the structure as drawn. Peptide text beside a SMILES is read from it.

Key:
Format in all cases: functional
Candida parapsilosis = experiment: Antifungal activity against Candida parapsilosis after 24 hrs to 1 week by two fold dilution method; details: Lodderomyces parapsilosis
Candida tropicalis = experiment: Antifungal activity against Candida tropicalis after 24 hrs to 1 week by two fold dilution method
Candida albicans [1] = experiment: Antifungal activity against Candida albicans SC5314 after 24 hrs to 1 week by two fold dilution method
Candida albicans [2] = experiment: Antifungal activity against Candida albicans Y0109 after 24 hrs to 1 week by two fold dilution method
Cryptococcus neoformans = experiment: Antifungal activity against Cryptococcus neoformans BLS108 after 24 hrs to 1 week by two fold dilution method

MIC80 (Candida parapsilosis): 1 µg/mL (≈ 1.11 µM)
MIC80 (Candida tropicalis): 0.25 µg/mL (≈ 0.277 µM)
MIC80 (Candida albicans [1]): 4 µg/mL (≈ 4.44 µM)
MIC80 (Candida albicans [2]): 16 µg/mL (≈ 17.8 µM)
MIC80 (Cryptococcus neoformans): 1 µg/mL (≈ 1.11 µM)
SMILES: CC[C@H](C)[C@@H]1NC(=O)[C@H](CC(N)=O)NC(=O)[C@H](C(C)C)NC(=O)CNC(=O)[C@H](Cc2c[nH]cn2)NC(=O)[C@H](Cc2c[nH]c3ccccc23)NC(=O)[C@@H]2CCCN2C(=O)[C@@H]2CCCN2C1=O [TUNICYCLIN D] (cyclo(GVNIPPWH))
